Measurements: patent publication US10188756B2, “Imaging histone deacetylases with a radiotracer using positron emission tomography” (THE GENERAL HOSPITAL CORPORATION, priority 2013, dated 2019)

Tests used:
[1] = target: HDAC5 (Homo sapiens (Human), UniProt Q9UQL6); assay: HDAC inhibition assay; settings: read-out: IC50 HDAC5
Protocol: (§2) All histone deacetylases were purchased from BPS Bioscience. […] All the other reagents were purchased from Sigma-Aldrich. Caliper EZ reader II system was used to collect all data. […] Purified HDACs were incubated with 2 μM carboxyfluorescein (FAM)-labeled acetylated or trifluoroacetylated peptide substrate (Broad Substrate A and B respectively) and test compound for 60 minutes at room temperature, in HDAC assay buffer that contained 50 mM HEPES (pH 7.4), 100 mM KCl, 0.01% BSA and 0.001% Tween-20. […] Substrate and product were separated electrophoretically and fluorescence intensity in the substrate and product peaks was determined and analyzed by Labchip EZ Reader. The reactions were performed in duplicate for each sample. IC50 values were automatically calculated by Origin 8 using 4 Parameter Logistic Model. The percent inhibition was plotted against the compound concentration, and the IC50 value was determined from the logistic dose-response curve fitting by Origin 8.0 software.

[2] = target: HDAC1 (Homo sapiens (Human), UniProt Q13547); assay: HDAC inhibition assay; settings: read-out: IC50 HDAC1
Protocol: as §2

[3] = target: HDAC8 (Homo sapiens (Human), UniProt Q9BY41); assay: HDAC inhibition assay; format: biochemical
Description: (§1) All histone deacetylases were purchased from BPS Bioscience. […] All the other reagents were purchased from Sigma-Aldrich.

[4] = target: HDAC6 (Homo sapiens (Human), UniProt Q9UBN7); assay: HDAC inhibition assay; format: biochemical
Chain of HDAC6 (Q9UBN7 whole entry): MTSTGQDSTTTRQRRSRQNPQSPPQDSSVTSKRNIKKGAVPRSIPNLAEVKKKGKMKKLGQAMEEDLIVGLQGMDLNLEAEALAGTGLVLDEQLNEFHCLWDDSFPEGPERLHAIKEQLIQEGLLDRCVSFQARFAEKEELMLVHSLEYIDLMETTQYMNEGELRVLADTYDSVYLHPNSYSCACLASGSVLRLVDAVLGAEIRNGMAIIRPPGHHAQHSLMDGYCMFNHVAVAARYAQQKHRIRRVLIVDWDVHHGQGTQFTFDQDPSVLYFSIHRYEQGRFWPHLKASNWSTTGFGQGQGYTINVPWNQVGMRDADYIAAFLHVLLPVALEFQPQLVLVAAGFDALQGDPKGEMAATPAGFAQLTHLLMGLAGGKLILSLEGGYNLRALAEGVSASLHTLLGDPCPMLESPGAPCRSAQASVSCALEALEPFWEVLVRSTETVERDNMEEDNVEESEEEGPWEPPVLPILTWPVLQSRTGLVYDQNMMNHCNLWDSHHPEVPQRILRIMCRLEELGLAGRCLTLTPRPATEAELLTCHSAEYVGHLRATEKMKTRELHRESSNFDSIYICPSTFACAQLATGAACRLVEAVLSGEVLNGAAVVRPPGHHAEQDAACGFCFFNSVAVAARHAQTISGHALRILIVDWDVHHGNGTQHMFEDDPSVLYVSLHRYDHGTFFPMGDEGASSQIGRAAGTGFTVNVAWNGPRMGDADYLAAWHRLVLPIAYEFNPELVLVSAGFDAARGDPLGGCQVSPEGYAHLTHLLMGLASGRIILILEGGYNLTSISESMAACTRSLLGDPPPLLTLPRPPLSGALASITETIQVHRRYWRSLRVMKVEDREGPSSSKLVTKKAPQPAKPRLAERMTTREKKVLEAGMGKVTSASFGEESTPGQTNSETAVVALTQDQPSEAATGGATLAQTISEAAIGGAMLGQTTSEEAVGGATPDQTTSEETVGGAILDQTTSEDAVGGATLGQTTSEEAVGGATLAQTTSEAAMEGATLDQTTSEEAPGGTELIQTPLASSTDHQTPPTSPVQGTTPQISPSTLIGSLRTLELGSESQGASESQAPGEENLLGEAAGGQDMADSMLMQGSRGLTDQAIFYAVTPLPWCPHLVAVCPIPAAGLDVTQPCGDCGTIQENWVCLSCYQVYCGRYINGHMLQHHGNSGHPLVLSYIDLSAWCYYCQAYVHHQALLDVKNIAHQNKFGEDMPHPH
Description: as §1

[5] = target: HDAC4 (Homo sapiens (Human), UniProt P56524); assay: HDAC inhibition assay; settings: read-out: IC50 HDAC4
Chain of HDAC4 (P56524 whole entry): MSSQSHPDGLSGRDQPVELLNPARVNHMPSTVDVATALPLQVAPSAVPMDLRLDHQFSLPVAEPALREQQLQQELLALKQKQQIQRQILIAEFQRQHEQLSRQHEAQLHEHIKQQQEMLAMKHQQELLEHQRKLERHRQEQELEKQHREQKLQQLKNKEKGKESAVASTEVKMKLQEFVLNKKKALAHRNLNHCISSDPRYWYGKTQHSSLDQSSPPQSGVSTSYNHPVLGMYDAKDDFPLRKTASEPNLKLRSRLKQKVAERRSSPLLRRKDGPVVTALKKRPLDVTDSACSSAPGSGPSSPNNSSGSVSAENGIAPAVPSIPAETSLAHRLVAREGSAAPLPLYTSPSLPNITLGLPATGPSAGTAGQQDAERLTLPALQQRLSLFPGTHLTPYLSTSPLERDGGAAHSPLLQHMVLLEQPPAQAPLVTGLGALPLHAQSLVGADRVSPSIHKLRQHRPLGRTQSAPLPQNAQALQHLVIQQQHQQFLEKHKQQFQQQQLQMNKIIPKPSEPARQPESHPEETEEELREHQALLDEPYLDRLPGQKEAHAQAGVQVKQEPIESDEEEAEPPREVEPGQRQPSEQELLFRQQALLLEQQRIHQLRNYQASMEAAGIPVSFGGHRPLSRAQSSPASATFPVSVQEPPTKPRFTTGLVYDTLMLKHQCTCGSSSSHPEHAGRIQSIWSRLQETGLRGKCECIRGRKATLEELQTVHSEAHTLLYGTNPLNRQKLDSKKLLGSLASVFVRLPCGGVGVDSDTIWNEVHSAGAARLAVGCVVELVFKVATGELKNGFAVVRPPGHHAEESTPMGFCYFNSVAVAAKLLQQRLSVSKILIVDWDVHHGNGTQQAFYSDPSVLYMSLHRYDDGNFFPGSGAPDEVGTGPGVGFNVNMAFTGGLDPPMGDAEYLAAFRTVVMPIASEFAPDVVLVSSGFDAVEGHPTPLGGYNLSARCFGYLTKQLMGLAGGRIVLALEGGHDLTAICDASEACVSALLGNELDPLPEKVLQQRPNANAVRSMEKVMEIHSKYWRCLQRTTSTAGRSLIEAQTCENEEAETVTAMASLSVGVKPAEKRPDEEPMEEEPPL
Protocol: as §2

[6] = target: HDAC3 (Homo sapiens (Human), UniProt O15379); assay: HDAC inhibition assay; settings: read-out: IC50 HDAC3
Chain of HDAC3 (O15379 whole entry): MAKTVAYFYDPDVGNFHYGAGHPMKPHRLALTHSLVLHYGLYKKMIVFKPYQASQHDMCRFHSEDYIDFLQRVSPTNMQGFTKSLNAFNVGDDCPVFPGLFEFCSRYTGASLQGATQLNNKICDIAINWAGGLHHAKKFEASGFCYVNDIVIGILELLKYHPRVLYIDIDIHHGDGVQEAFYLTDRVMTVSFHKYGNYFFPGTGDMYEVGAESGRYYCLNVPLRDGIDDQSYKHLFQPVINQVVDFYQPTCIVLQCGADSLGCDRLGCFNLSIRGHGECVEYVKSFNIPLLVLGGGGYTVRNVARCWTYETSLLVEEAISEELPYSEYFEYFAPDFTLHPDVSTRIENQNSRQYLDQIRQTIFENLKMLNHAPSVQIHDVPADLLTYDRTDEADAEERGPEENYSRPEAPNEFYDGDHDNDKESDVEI
Chain of HDAC3 (Q9Y618 395-489 partner): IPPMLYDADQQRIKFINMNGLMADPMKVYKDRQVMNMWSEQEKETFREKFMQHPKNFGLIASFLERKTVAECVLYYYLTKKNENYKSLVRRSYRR
Protocol: as §2

[7] = target: HDAC9 (Homo sapiens (Human), UniProt Q9UKV0); assay: HDAC inhibition assay; settings: read-out: IC50 HDAC9
Chain of HDAC9 (Q9UKV0 whole entry): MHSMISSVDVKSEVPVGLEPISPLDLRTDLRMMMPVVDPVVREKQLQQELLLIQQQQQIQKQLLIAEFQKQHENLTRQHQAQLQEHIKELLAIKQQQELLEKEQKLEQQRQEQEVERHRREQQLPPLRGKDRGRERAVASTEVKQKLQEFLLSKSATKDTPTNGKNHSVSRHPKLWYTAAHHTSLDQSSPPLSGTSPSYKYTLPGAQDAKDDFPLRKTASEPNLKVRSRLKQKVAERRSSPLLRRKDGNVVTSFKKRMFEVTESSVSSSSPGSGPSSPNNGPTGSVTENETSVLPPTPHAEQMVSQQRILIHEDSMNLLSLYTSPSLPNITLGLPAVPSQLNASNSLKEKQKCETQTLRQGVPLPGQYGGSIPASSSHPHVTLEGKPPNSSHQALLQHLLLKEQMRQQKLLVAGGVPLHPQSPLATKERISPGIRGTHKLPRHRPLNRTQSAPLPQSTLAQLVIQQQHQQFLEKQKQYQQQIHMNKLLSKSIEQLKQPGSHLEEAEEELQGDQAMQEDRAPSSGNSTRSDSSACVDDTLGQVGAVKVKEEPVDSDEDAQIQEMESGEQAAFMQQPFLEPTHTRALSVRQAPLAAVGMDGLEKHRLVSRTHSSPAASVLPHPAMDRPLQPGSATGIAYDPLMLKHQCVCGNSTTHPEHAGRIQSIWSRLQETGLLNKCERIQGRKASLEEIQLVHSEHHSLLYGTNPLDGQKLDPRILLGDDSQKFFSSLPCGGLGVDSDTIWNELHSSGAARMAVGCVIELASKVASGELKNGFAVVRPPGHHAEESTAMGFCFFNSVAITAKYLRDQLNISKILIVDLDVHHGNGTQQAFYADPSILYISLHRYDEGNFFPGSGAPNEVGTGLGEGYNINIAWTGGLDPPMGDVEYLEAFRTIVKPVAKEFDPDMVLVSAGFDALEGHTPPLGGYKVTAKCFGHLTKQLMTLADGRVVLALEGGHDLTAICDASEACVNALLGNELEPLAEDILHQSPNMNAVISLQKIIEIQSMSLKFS
Protocol: as §2

[8] = target: HDAC7 (Homo sapiens (Human), UniProt Q8WUI4); assay: HDAC inhibition assay; settings: read-out: IC50 HDAC7
Protocol: as §2

[9] = target: HDAC2 (Homo sapiens (Human), UniProt Q92769); assay: HDAC inhibition assay; format: biochemical
Description: as §1

[10] = system: histone deacetylases; assay: Baboon PET/MR imaging with [11C]CN133; format: in vivo, baboon (Papio anubis); settings: for VT (Ichese MAI), CN147 blocked / VT (Logan Plot), CN147 blocked: [11C]CN133 VT after CN147 0.5 mg/kg intravenous; for VT (Ichese MAI), % Difference / VT (Logan Plot), % Difference: baseline vs CN147 blocked
Protocol: A female Papio Anubis baboon, deprived of food for 12 hours prior to the study, was administered intramuscular ketamine (10 mg/kg) and intubated. For maintenance of anesthesia throughout the study, the baboon was provided 1%-4% isoflurane (Forane) in a mixture of medical oxygen and nitrogen. The baboon was catheterized antecubitally for radiotracer injection and a radial arterial line was placed for metabolite analysis. MR-PET images were acquired in a BiographmMR scanner (Siemens, Munich, Germany), and PET compatible 8-channel coil arrays for non-human primate brain imaging with a PET resolution of 5 mm and field of view of 59.4 cm and 25.8 cm (transaxial and axial, respectively). Dynamic PET image acquisition was initiated followed by administration of the radiotracer in a homogenous solution of 10% ethanol and 90% isotonic saline. An […] sequence began after 30 minutes of the baseline scan for anatomic coregistration. […] Both scans were carried out in the same animal on the same day, separated by 2.5 hours. In both scans, 4-5 mCi of [^11C]CN133 was administered to the baboon. Dynamic data from the PET scans were recorded in list mode and corrected for attenuation. Baboon data were reconstructed using a 3D-OSEM method resulting in a full width at half-maximum resolution of 4 mm.
Volumes of interest (VOIs) were drawn manually as spheres in brain regions guided by high resolution MR structural images and summed PET data, with a radius no less than 4 mm. A common VOI mask was applied to both baboon scans. Time-activity curves (TACs) were exported in terms of decay corrected activity per unit volume at specified time points with gradually increasing intervals. The TACs were expressed as percent injected dose per unit volume for analysis.
Arterial samples collected during imaging from the baboon were centrifuged to obtain plasma, which was then removed and placed in an automated gamma counter that was calibrated to the PET scanner. Metabolite analysis was conducted on a custom automated robot fitted with Phenomenex SPE Strata-X 500 mg solid phase extraction cartridges that were primed with ethanol (2 mL) and deionized water (20 mL). Protein precipitation was achieved by addition of plasma (300 μL) to acetonitrile (300 μL), which was centrifuged for 1 minute to obtain protein-free plasma (PFP). 300 μL of PFP/acetonitrile solution was diluted into deionized water (3 mL), loaded onto the C18 cartridge, and removed of polar metabolites with 100% water. Next, a series of extractions were performed using water and acetonitrile in quantities: 95:5, 90:10, 85:15, 80:20, 70:30, 60:40, 30:70 and 100% acetonitrile at a volume of 4 mL. A control experiment was performed before metabolite analysis to determine the retention of the parent compound by injection of a small amount of [^11C]CN133 onto a test series of extraction cartridges. Each sample was counted in a WIZARD2 Automatic Gamma Counter to determine the presence of radiolabeled metabolites.
CN147 blocks ˜40% of [^11C]CN133 binding in NHP whole brain and in cerebellum. Plasma-normalized data were evaluated by volume of interest analysis (VOI) at the whole brain level and at level of the cerebellum. VOI data were then applied to distribution volume (VT) data analysis by two graphical methods using PMOD software, tabulated in Tables A and B below. Logan Plot and Ichese MAI methods were clarified from previous NHP imaging analyses to provide an accurate VT estimate (+/− standard error) from data beginning 35 min after injection of radiotracer (t*=35 min) until the end of the scan (t=80min).

Chain of HDAC5 (Q9UQL6 whole entry): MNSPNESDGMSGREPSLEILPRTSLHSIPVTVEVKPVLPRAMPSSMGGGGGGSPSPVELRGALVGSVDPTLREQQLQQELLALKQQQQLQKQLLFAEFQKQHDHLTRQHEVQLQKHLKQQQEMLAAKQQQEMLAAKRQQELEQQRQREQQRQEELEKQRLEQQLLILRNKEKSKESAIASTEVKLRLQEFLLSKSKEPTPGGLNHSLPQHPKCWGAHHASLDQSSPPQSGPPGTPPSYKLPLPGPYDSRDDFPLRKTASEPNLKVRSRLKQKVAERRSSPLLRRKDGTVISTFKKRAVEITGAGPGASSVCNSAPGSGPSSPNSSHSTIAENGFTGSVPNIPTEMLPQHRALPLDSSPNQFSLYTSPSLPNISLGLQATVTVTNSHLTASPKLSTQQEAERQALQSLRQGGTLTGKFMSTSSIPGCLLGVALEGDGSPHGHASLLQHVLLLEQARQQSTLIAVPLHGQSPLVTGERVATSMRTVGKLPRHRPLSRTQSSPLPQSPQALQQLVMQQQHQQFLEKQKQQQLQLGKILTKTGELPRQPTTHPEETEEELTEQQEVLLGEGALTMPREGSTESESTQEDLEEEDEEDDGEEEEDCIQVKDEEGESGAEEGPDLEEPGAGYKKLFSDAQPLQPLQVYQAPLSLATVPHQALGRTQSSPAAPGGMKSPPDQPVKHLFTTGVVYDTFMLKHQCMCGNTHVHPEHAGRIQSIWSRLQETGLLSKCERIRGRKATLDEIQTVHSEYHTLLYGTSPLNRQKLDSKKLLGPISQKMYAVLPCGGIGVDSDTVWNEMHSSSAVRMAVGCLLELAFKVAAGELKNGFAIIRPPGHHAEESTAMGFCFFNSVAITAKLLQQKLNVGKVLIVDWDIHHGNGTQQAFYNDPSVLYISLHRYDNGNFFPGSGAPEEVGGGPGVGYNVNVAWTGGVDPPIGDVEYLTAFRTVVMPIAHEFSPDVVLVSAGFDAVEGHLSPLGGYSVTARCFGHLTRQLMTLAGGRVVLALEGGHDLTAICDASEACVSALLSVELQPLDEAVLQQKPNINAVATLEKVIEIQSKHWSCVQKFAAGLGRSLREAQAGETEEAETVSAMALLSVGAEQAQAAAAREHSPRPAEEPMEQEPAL

Row | IC50 [1] | IC50 [2] | IC50 [3] | IC50 [4] | IC50 [5] | IC50 [6] | IC50 [7] | IC50 [8] | IC50 [9] | Structure (SMILES) | VT (Ichese MAI), CN147 blocked ([10]; Cerebellum VOI) | VT (Logan Plot), CN147 blocked ([10]; Cerebellum VOI) | VT (Ichese MAI), % Difference ([10]; Cerebellum VOI) | VT (Logan Plot), % Difference ([10]; Cerebellum VOI) | blocking of [11C]CN133 binding ([10]; NHP whole brain and cerebellum) | VT (Ichese MAI), CN147 blocked ([10]; Whole Brain VOI) | VT (Logan Plot), CN147 blocked ([10]; Whole Brain VOI) | VT (Ichese MAI), % Difference ([10]; Whole Brain VOI) | VT (Logan Plot), % Difference ([10]; Whole Brain VOI)
1 | 5350 nM | 221 nM | > 30000 nM | 308 nM | > 10000 nM | 470 nM | > 40000 nM | > 30000 nM |  | O=C(/C=C/c1ccc(CN(CCF)CC23CC4CC(CC(C4)C2)C3)cc1)NO [CN146] |  |  |  |  |  |  |  |  | 
2 |  | 6.1 nM |  |  |  | 5.7 nM |  |  | 11.9 nM | CNc1ccc(C(=O)NCCCCCCC(=O)NO)cc1 [CN53] |  |  |  |  |  |  |  |  | 
3 |  | 1.64 nM | 725 nM | 11.7 nM |  | 0.54 nM |  |  | 14.2 nM | O=C(/C=C/c1ccc(CNCC2CCCCC2)c(F)c1)NO [CN166] |  |  |  |  |  |  |  |  | 
4 | 4750 nM | 0.78 nM | > 50000 nM | 11.7 nM | 20300 nM | 0.76 nM | > 50000 nM | > 50000 nM |  | CN(Cc1ccc(/C=C/C(=O)NO)cc1F)CC12CC3CC(CC(C3)C1)C2 [CN149] |  |  |  |  |  |  |  |  | 
5 | > 10000 nM | 5 nM | 150 nM | 5 nM | 500 nM | 3.4 nM | > 10000 nM |  | 32 nM | CN(CCc1ccccc1)S(=O)(=O)c1cccc(/C=C/C(=O)NO)c1 [CN89] |  |  |  |  |  |  |  |  | 
6 | 196 nM | 1.8 nM | 9600 nM | 9.7 nM | 927 nM | 4.3 nM | > 10000 nM | > 20000 nM |  | O=C(/C=C/c1ccc(CNCC2CCCCC2)cc1)NO [CN143] |  |  |  |  |  |  |  |  | 
7 |  | 270 nM |  |  |  | 97.8 nM |  |  | 160 nM | CN(C)CCOc1ccc2c(c1)C(c1ccc(C(=O)NO)cc1)=Nc1ccccc1O2 [CN56] |  |  |  |  |  |  |  |  | 
8 | > 10000 nM | 133 nM | 725 nM | 21.7 nM | > 10000 nM | 151 nM | > 50000 nM | > 20000 nM | 470 nM | O=C(/C=C/c1ccccc1)NO [CN86] |  |  |  |  |  |  |  |  | 
9 |  | 96.7 nM | 493 nM | 2.13 nM |  | 143 nM |  |  | 307 nM | CCCCN(Cc1ccc(C(=O)NO)cc1)C(=O)Nc1ccccc1OC [CN165] |  |  |  |  |  |  |  |  | 
10 | > 20000 nM | 1.2 nM | > 70000 nM | 2.3 nM | > 10000 nM | 1.1 nM | 1470 nM |  | 4 nM | COc1ccc2c(c1)C(=O)N(CCCCCC(=O)NO)c1ccccc1S2 [CN112] |  |  |  |  |  |  |  |  | 
11 |  | 0.95 nM | > 10000 nM | 1.7 nM |  | 1.2 nM | > 10000 nM | > 20000 nM | 7.8 nM | O=C(/C=C/c1ccc(CNCC23CC4CC(CC(C4)C2)C3)cc1)NO [CN132] |  |  |  |  |  |  |  |  | 
12 |  |  |  |  |  |  |  |  |  | CN(Cc1ccc(/C=C/C(=O)Nc2ccccc2N)cc1)CC12CC3CC(CC(C3)C1)C2 [CN147] | 11.68 ± 8.42 | 11.59 ± 3.37 | 39.95% | 39.89% | ~40% | 8.92 ± 9.26 | 8.85 ± 3.06 | 39.11% | 38.80%
13 | 207 nM | 55.8 nM | 2400 nM | 14.4 nM | 389 nM | 97.9 nM | > 10000 nM | 5510 nM |  | CN(Cc1ccc2c(c1)CCC(C(=O)NO)=C2)CC12CC3CC(CC(C3)C1)C2 [CN141] |  |  |  |  |  |  |  |  | 
14 | 4310 nM | 0.78 nM | 4900 nM | 9.5 nM | > 70000 nM | 0.5 nM | > 50000 nM | > 50000 nM | 6.4 nM | O=C(/C=C/c1ccc(CNCC23CC4CC(CC(C4)C2)C3)c(F)c1)NO [CN148] |  |  |  |  |  |  |  |  | 
15 | > 10000 nM | 301 nM | 2570 nM | 23.2 nM | > 70000 nM | 238 nM | > 70000 nM | > 70000 nM | 833 nM | COc1ccc(/C=C/C(=O)NO)cc1 [CN87] |  |  |  |  |  |  |  |  | 
16 | > 70000 nM | > 50000 nM |  | 6820 nM |  | 9240 nM |  |  |  | CN(C)Cc1ccc(/C=C/C(=O)NO)cc1 [CN145] |  |  |  |  |  |  |  |  | 
17 | > 10000 nM | 4.7 nM | 2370 nM | 8.4 nM | > 10000 nM | 1.9 nM | > 50000 nM | > 40000 nM | 18 nM | CCCCc1nc2cc(/C=C/C(=O)NO)ccc2n1CCN(C)C [CN101] |  |  |  |  |  |  |  |  | 
18 | 7950 nM | 17.8 nM | 925 nM | 4.1 nM | 3830 nM | 13.7 nM | > 10000 nM | 2020 nM | 52.9 nM | CN(c1ccccc1)S(=O)(=O)c1cccc(/C=C/C(=O)NO)c1 [CN88] |  |  |  |  |  |  |  |  | 
19 | 3850 nM | 0.8 nM | 2840 nM | 1.2 nM | 9450 nM | 1.3 nM | > 20000 nM | 9650 nM | 2 nM | COc1ccc2c(c1)C(=O)N(CCCCCC(=O)NO)c1ccccc1S2(=O)=O [CN113] |  |  |  |  |  |  |  |  | 
20 |  | 106 nM |  |  |  | 84.5 nM |  |  | 477 nM | CNc1ccc(C(=O)NCCCCC(=O)NO)cc1 [CN51] |  |  |  |  |  |  |  |  | 
21 |  | 5.43 nM | 1810 nM | 18.7 nM |  | 4.83 nM |  |  | 40 nM | CN(Cc1ccc(/C=C/C(=O)NO)cc1F)CC1CCCCC1 [CN167] |  |  |  |  |  |  |  |  | 

Row | Structure (SMILES) | IC50 [1] | IC50 [2] | IC50 [3] | IC50 [4] | IC50 [5] | IC50 [6] | IC50 [7] | IC50 [8] | IC50 [9] | VT (Ichese MAI), CN147 blocked ([10]; Cerebellum VOI) | VT (Logan Plot), CN147 blocked ([10]; Cerebellum VOI) | VT (Ichese MAI), % Difference ([10]; Cerebellum VOI) | VT (Logan Plot), % Difference ([10]; Cerebellum VOI) | blocking of [11C]CN133 binding ([10]; NHP whole brain and cerebellum) | VT (Ichese MAI), CN147 blocked ([10]; Whole Brain VOI) | VT (Logan Plot), CN147 blocked ([10]; Whole Brain VOI) | VT (Ichese MAI), % Difference ([10]; Whole Brain VOI) | VT (Logan Plot), % Difference ([10]; Whole Brain VOI)
22 | Cn1cc(CCNCc2ccc(/C=C/C(=O)NO)cc2)c2ccccc21 [CN107] | 99 nM | 0.2 nM | 1040 nM | 1.6 nM | 655 nM | 0.4 nM | 4850 nM | 2040 nM | 1.2 nM |  |  |  |  |  |  |  |  | 
23 | CN(C)c1ccc(C(=O)NCCCCCCC(=O)NO)cc1 [CN52] |  | 7.3 nM |  |  |  | 4.3 nM |  |  | 20.7 nM |  |  |  |  |  |  |  |  | 
